Experimental data: patent publication US11540516B2, “M-diamide compound and preparation method therefor and use thereof” (priority 2018, dated 2023)
Like-named read-outs stand apart in the source and are kept apart here.

Columns and labels:
Format in all cases: in vivo
Mythimna separata = assay: Indoor bioactivity test against Mythimna separata (leaf dip); settings: foliar, 3rd day after treatment
Description: The leaf dip method was used to assay the insecticidal activity of compounds to strains of Mythimna sepatata. Cut above ground part of fresh maize seedlings, about 10 cm. Dip the maize seedlings into the solution prepared with compound of this invention for 10 seconds and dry them in a cool environment. Then cut the dry maize seedlings into 3˜5 cm leaf sections and put 3 leaf sections into each petri dish. Put ten of 4th-instar larvae of Mythimna separatas into each dish, which was repeated by 3 times. Then the dishes were placed in an illumination incubator and incubated at 25° C. in the dark. Symptoms were investigated on the 1st, 2nd and 3rd day after treatment, and the mortality was calculated.

Plutella xylostella = assay: Indoor bioactivity test against Plutella xylostella (leaf dip); settings: foliar; for mortality at 0.4 ppm / mortality at 1 ppm: 3rd day after treatment
Protocol: (§1) The leaf dip method was used to assay the insecticidal activity of compounds to strains of Plutella xylostella. Dip the leaf disc into the solution prepared with compound of this invention for 10 seconds, and dry them in a cool environment. Then place them in Petri dish with 4 discs per dish. Put the filter paper into the Petri dish to moisturize it. Put 10 of Plutella xylostella into each dish, which was repeated by 3 times. The dishes were placed in an illumination incubator and incubated at 25° C. with 14 hL: 10 hD illumination. The number of Plutella xylostella death was investigated on the 1st, 2nd and 3rd day after treatment, and the mortality was calculated.
According to the above method, compound 4 and KC1 were selected and parallelly tested against Plutella xylostella to compare their insecticidal activity.

Chilo suppressalis = assay: Indoor bioactivity test against Chilo suppressalis (rice stem dip)
Protocol: The leaf dip method was used to assay the insecticidal activity of compounds to strains of Chilo suppressalis. The rice was cultivated in a plastic pot with a diameter of 9 cm and a height of 10 cm. When the rice grew about 25 cm, the aerial part of robust and consistent rice seedlings were selectively cut. Their leaves were removed and their stems of about 8 cm were kept for use. Pour the solution prepared with compound of this invention into the Petri dish (about 40 mL) and immerse the rice stems into the solution for 10 seconds. Take rice stems out and dry them in a cool environment. Put a wet cotton ball at the bottom of finger-like glass tube and 5 rice stems in each tube. Put 10 of 3rd-instar larvae of Chilo suppressa into each tube, which was repeated by 3 times. Seal the tubes with black cotton cloth and tighten them with rubber band. The tubes were placed in a illumination incubator at 28° C. and incubated in the dark. The number of alive Chilo suppressalis and the total number were investigated 3 days after treatment. The mortality was calculated.
According to the above method, Compound 23 and KC2 were selected and parallelly tested against Chilo suppressalis.

[1] = tested on: Spodoptera exigua Hiibner; assay: Indoor bioactivity test against Spodoptera exigua Hiibner (leaf dip); settings: foliar, 3rd day after treatment
Protocol: as §1, with “strains of Spodoptera exigua Hiibner. Dip the” for “strains of Plutella xylostella. Dip the”, “10 of Spodoptera exigua Hiibners into each” for “10 of Plutella xylostella into each”, “number of Spodoptera exigua Hiibner death was” for “number of Plutella xylostella death was”

Spodoptera litura = assay: Indoor bioactivity test against Spodoptera litura (leaf dip); settings: foliar
Protocol: as §1, with “Spodoptera litura.” for “Plutella xylostella.”, “Spodoptera litura” for “Plutella xylostella”
According to the above method, compound 4, 23 and KC1 were selected and parallelly tested against Spodoptera litura to compare the insecticidal activity.

soybean thrips = assay: Biological activity on soybean thrips in greenhouse (foliar spray)
Protocol: Test system: naturally occurring thrips population on soybeans planted in greenhouse. The basic number of active thripses were more than 100 thripses per trifoliate leaf. Under the same conditions, the sensitivity of the thrips population to Spinetoram (dose: 50 mg/L) is 96.55% mortality on the 6th day after treatment.
The size of the plot: 10 m^2, no repetition.
Test formulation: each compound was made into 5% SL (compound 5%+emulsifier 5%+solvent to make up 100%).
(1) Spraying time: both adult and larva thripses were in the active period. The number of spray: 1 time.
(2) Standard for water usage: when dose was in mg/kg, the upper leaves were wet and water began to drop therefrom.
(3) Survey standard: count three single leaves as one leaf. Three leaves were randomly selected and investigated for the number of adult and larva thripses on them.
[…] 2 surveys were conducted.

[2] = 3rd day after treatment, read-out: mortality of Chilo suppressalis
[3] = 24 h, read-out: Mortality (%) 1 d
[4] = 48 h, read-out: Mortality (%) 2 d
[5] = 72 h, read-out: Mortality (%) 3 d
[6] = dose 50 ppm, 1 d, foliar spray, 5% SL
[7] = dose 50 ppm, 6 d, foliar spray, 5% SL

`CC(C1CC1)N(C(=O)c1ccccc1)c1cccc(C(=O)Nc2c(Br)cc(C(F)(C(F)(F)F)C(F)(F)F)cc2C(F)(F)F)c1F` (centres unmarked) [Compound 8, N-(2-bromo-4-(perfluoropropan-2-yl)-6-(trifluoromethyl)phenyl)-3-(N-(1-cyclopropylethyl)benzamido)-2-fluorobenzamide] showed a mortality at 1 ppm (Mythimna separata) of no less than 90% and a mortality at 0.4 ppm (Plutella xylostella) of no less than 90%.

`O=C(Nc1c(Br)cc(C(F)(C(F)(F)F)C(F)(F)F)cc1C(F)(F)F)c1cccc(N(C(=O)c2ccccc2)C(C2CC2)C2CC2)c1F` [Compound 22, N-(2-bromo-4-(perfluoropropan-2-yl)-6-(trifluoromethyl)phenyl)-3-(N-(dicyclopropylmethyl)benzamido)-2-fluorobenzamide] was tested, and the mortality at 1 ppm (Mythimna separata) was no less than 90%.

Work on `CC(C1CC1)N(C(=O)c1ccc(C#N)cc1)c1cccc(C(=O)Nc2c(Br)cc(C(F)(C(F)(F)F)C(F)(F)F)cc2C(F)(F)F)c1F` (centres unmarked) [Compound 26, N-(2-bromo-4-(perfluoropropan-2-yl)-6-(trifluoromethyl)phenyl)-3-(4-cyano-N-(1-cyclopropylethyl)benzamido)-2-fluorobenzamide] yielded a mortality at 1 ppm (Mythimna separata) of no less than 90%, a mortality at 0.4 ppm (Plutella xylostella) of no less than 90% and a mortality at 5 ppm (Chilo suppressalis; [2]) of no less than 90%.

Work on `COC(c1cc(Br)c(NC(=O)c2cccc(N(CC3CC3)C(=O)c3ccc(C(F)(F)F)cc3)c2F)c(C(F)(F)F)c1)(C(F)(F)F)C(F)(F)F` [Compound 38, N-(2-bromo-4-(1,1,1,3,3,3-hexafluoro-2-methoxypropan-2-yl)-6-(trifluoromethyl)phenyl)-3-(N-(cyclopropylmethyl)-4-(trifluoromethyl)benzamido)-2-fluorobenzamide] yielded a mortality at 1 ppm (Mythimna separata) of no less than 90%.

`CC(C1CC1)N(C(=O)c1ccc(C(F)(F)F)cc1)c1cccc(C(=O)Nc2c(Br)cc(C(F)(C(F)(F)F)C(F)(F)F)cc2C(F)(F)F)c1F` (centres unmarked) [Compound 39, N-(2-bromo-4-(perfluoropropan-2-yl)-6-(trifluoromethyl)phenyl)-3-(N-(1-cyclopropylethyl)-4-(trifluoromethyl)benzamido)-2-fluorobenzamide] showed a mortality at 1 ppm (Mythimna separata) of no less than 90%, a mortality at 1 ppm (Plutella xylostella) of no less than 90% and a mortality at 10 ppm (Chilo suppressalis; 3rd day after treatment) of no less than 90%.

In the case of `CC(C1CC1)N(C(=O)c1ccc(Cl)cc1)c1cccc(C(=O)Nc2c(Br)cc(C(F)(C(F)(F)F)C(F)(F)F)cc2C(F)(F)F)c1F` (centres unmarked) [Compound 44, N-(2-bromo-4-(perfluoropropan-2-yl)-6-(trifluoromethyl)phenyl)-3-(4-chloro-N-(1-cyclopropylethyl)benzamido)-2-fluorobenzamide], the mortality at 1 ppm (Mythimna separata) is reported as no less than 90%.

Compound `O=C(Nc1c(Br)cc(C(F)(C(F)(F)F)C(F)(F)F)cc1C(F)(F)F)c1cccc(N(CC2CC2)C(=O)c2ccc(Br)cc2)c1F` [Compound 46, N-(2-bromo-4-(perfluoropropan-2-yl)-6-(trifluoromethyl)phenyl)-3-(4-bromo-N-(cyclopropylmethyl)benzamido)-2-fluorobenzamide] has a mortality at 1 ppm [1] of 90% and a mortality at 5 ppm (Chilo suppressalis; [2]) of no less than 90%.

Compound `O=C(Nc1c(I)cc(C(F)(C(F)(F)F)C(F)(F)F)cc1C(F)(F)F)c1cccc(N(CC2CC2)C(=O)c2ccc(Br)cc2)c1F` [Compound 47, N-(2-iodo-4-(perfluoropropan-2-yl)-6-(trifluoromethyl)phenyl)-3-(4-bromo-N-(cyclopropylmethyl)benzamido)-2-fluorobenzamide] has a mortality at 1 ppm (Mythimna separata) of no less than 90%, a mortality at 1 ppm [1] of 90% and a mortality at 0.4 ppm (Spodoptera litura; 0.4 ppm, 3rd day after treatment, read-out: mortality of Spodoptera litura) of no less than 90%. It also gave a mortality at 10 ppm (Chilo suppressalis; 3rd day after treatment) of no less than 90%.

`CC(C1CC1)N(C(=O)c1ccc(Br)cc1)c1cccc(C(=O)Nc2c(Br)cc(C(F)(C(F)(F)F)C(F)(F)F)cc2C(F)(F)F)c1F` (centres unmarked) [Compound 50, N-(2-bromo-4-(perfluoropropan-2-yl)-6-(trifluoromethyl)phenyl)-3-(4-bromo-N-(1-cyclopropylethyl)benzamido)-2-fluorobenzamide] was tested, and the mortality at 10 ppm (Chilo suppressalis; 3rd day after treatment) was no less than 90%.

`O=C(Nc1c(Br)cc(C(F)(C(F)(F)F)C(F)(F)F)cc1C(F)(F)F)c1cccc(N(CC2CC2)C(=O)c2ccc(I)cc2)c1F` [Compound 52, N-(2-bromo-4-(perfluoropropan-2-yl)-6-(trifluoromethyl)phenyl)-3-(N-(cyclopropylmethyl)-4-iodobenzamido)-2-fluorobenzamide] showed a mortality at 1 ppm (Mythimna separata) of no less than 90%, a mortality at 10 ppm (Spodoptera litura; 3rd day after treatment) of no less than 90% and a mortality at 10 ppm (Chilo suppressalis; 3rd day after treatment) of no less than 90%.

For `O=C(Nc1c(I)cc(C(F)(C(F)(F)F)C(F)(F)F)cc1C(F)(F)F)c1cccc(N(CC2CC2)C(=O)c2ccc(I)cc2)c1F` [Compound 53, N-(2-iodo-4-(perfluoropropan-2-yl)-6-(trifluoromethyl)phenyl)-3-(N-(cyclopropylmethyl)-4-iodobenzamido)-2-fluorobenzamide], the mortality at 10 ppm ([1]; 10 ppm) was no less than 90%, the mortality at 10 ppm (Spodoptera litura; 3rd day after treatment) was no less than 90% and the mortality at 10 ppm (Chilo suppressalis; 3rd day after treatment) was no less than 90%.

Compound `CS(=O)(=O)c1ccc(C(=O)N(CC2CC2)c2cccc(C(=O)Nc3c(Br)cc(C(F)(C(F)(F)F)C(F)(F)F)cc3C(F)(F)F)c2F)cc1` [Compound 57, N-(2-bromo-4-(perfluoropropan-2-yl)-6-(trifluoromethyl)phenyl)-3-(N-(cyclopropylmethyl)-4-(methylsulfonyl)benzamido)-2-fluorobenzamide] has a mortality at 1 ppm (Mythimna separata) of no less than 90%, a mortality at 1 ppm [1] of 90% and a mortality at 1 ppm (Plutella xylostella) of no less than 90%. The mortality at 10 ppm (Spodoptera litura; 3rd day after treatment) was no less than 90%.

`CC(C1CC1)N(C(=O)c1ccc(F)cc1)c1cccc(C(=O)Nc2c(Br)cc(C(F)(C(F)(F)F)C(F)(F)F)cc2C(F)(F)F)c1F` (centres unmarked) [Compound 63, N-(2-bromo-4-(perfluoropropan-2-yl)-6-(trifluoromethyl)phenyl)-3-(N-(1-cyclopropylethyl)-4-fluorobenzamido)-2-fluorobenzamide] showed a mortality at 1 ppm (Plutella xylostella) of no less than 90%.

`CN(C(=O)c1ccccc1)c1cccc(C(=O)Nc2c(Br)cc(C(F)(C(F)(F)F)C(F)(F)F)cc2C(F)(F)F)c1F` [KC1 (broflanilide), broflanilide, reference compound] showed a mortality at 0.04 ppm (Plutella xylostella; [3]) of 0%, a mortality at 0.04 ppm (Plutella xylostella; [4]) of 56.7% and a mortality at 0.04 ppm (Plutella xylostella; [5]) of 90%. For the same compound, the mortality at 0.4 ppm (Spodoptera litura; [3]) was 0%, the mortality at 1 ppm (Spodoptera litura; [3]) was 26.7% and the mortality at 0.4 ppm (Spodoptera litura; [4]) was 0%. The mortality at 1 ppm (Spodoptera litura; [4]) was 33.3%, the mortality at 0.4 ppm (Spodoptera litura; [5]) was 0% and the mortality at 1 ppm (Spodoptera litura; [5]) was 33.3%.

With `CN(C(=O)c1ccc(C#N)cc1)c1cccc(C(=O)Nc2c(Br)cc(C(F)(C(F)(F)F)C(F)(F)F)cc2C(F)(F)F)c1F` [KC2, reference compound] the mortality at 0.4 ppm (Chilo suppressalis; 72 h, 0.4 ppm, 3d) was 0%, the mortality at 1 ppm (Chilo suppressalis; 72 h, 1 ppm, 3d) was 53.3% and the mortality at 2 ppm (Chilo suppressalis; 72 h, 2 ppm, 3d) was 86.7%. It also gave a mortality at 5 ppm (Chilo suppressalis; 72 h, 3d, read-out: Mortality (%, 3d) 5 ppm) of 93.3%.

Spinetoram [reference compound] was tested, and the “sensitivity of the thrips population, mortality” value (soybean thrips; dose 50 mg/L, 6th day after treatment) was 96.55%, the “Mortality % 1 d” value (soybean thrips; [6]) was 93.94% and the “No. of thrips 1 d” value (soybean thrips; [6]) was 16. For the same compound, the “Mortality % 6 d” value (soybean thrips; [7]) was 96.55% and the “No. of thrips 6 d” value (soybean thrips; [7]) was 4.
